Reference: DBAASP
Converted amounts (≈) assume the structure as drawn. Values belong to the compound of their own block, whether it stands above or below them.

What was measured:
Experiment in all cases: ≥ marks a high value that may be exact or a test limit, other limits are often not marked, values filed in µg/mL are converted to µM
[1] = tested on: Enterobacter cloacae CGMCC 1.57
[2] = tested on: Enterococcus faecalis 981
[3] = tested on: Enterococcus faecium 091299
[4] = tested on: Klebsiella pneumoniae 08040724
[5] = tested on: Nocardia asteroides 201118
[6] = tested on: Psychrobacter faecalis X29
[7] = tested on: Staphylococcus aureus ATCC 25923
[8] = tested on: Escherichia coli ATCC 11219
[9] = tested on: Klebsiella pneumoniae ATCC 10031
[10] = tested on: Pseudomonas aeruginosa ATCC 13388
[11] = tested on: Salmonella enterica subsp. enterica serovar Typhimurium ATCC 14028
[12] = tested on: Staphylococcus aureus ATCC 6538
[13] = tested on: Pseudomonas aeruginosa ATCC 27853
[14] = tested on: Staphylococcus aureus ATCC 33591
[15] = tested on: Staphylococcus epidermidis ATCC 35984
[16] = tested on: Bacillus subtilis ATCC 6051
[17] = tested on: Escherichia coli NEB5alpha
Bacillus cereus AS1.126 = tested on: Bacillus cereus AS1.126
[18] = tested on: Enterobacter cloacae CGMCC 1.58
[19] = tested on: Enterococcus faecalis CGMCC 1.595
[20] = tested on: Enterococcus faecium CGMCC 1.2334
Escherichia coli AS1.349 = tested on: Escherichia coli AS1.349
[21] = tested on: Klebsiella pneumoniae subsp. pneumoniae CGMCC 1.176
[22] = tested on: Proteus mirabilis CICC 22931
[23] = tested on: Pseudomonas aeruginosa CGMCC 1.860
[24] = tested on: Staphylococcus aureus AS1.72
[25] = tested on: Staphylococcus epidermidis CICC 23664
Bacillus subtilis A47 = tested on: Bacillus subtilis A47
Escherichia coli 44102 = tested on: Escherichia coli 44102
[26] = tested on: Staphylococcus aureus 22401

MIC [1]: ≥ 50 µM | MIC [2]: ≥ 100 µM | MIC [3]: 25 µM (≈ 77.1 µg/mL) | MIC [4]: ≥ 100 µM | MIC [5]: 6.3 µM (≈ 19.4 µg/mL) | MIC [6]: 3.1 µM (≈ 9.56 µg/mL) | MIC [7]: 50 µM (≈ 154 µg/mL)
Compound: CC[C@H](C)[C@@H]1NC(=O)[C@H](CCCCN)NC(=O)[C@@H](NC(=O)[C@H](CCCCN)NC(=O)[C@H](CC(C)C)NC(=O)[C@H](CCCCN)NC(=O)[C@H](CC(=O)O)NC(=O)[C@H](CC(C)C)NC(=O)[C@H](CC(C)C)NC(=O)[C@@H](NC(=O)[C@@H](NC(=O)[C@H](C)NC(=O)[C@@H](NC(=O)[C@H](CC(N)=O)NC(=O)[C@H](CCCCN)NC(=O)[C@H](Cc2ccccc2)NC(=O)[C@@H](NC(=O)[C@H](CC(N)=O)NC(=O)[C@H](CCCCN)NC(=O)[C@H](C)NC(=O)[C@@H](NC(=O)[C@H](CC(=O)O)NC(=O)[C@H](CCSC)NC(=O)[C@H](Cc2ccccc2)NC(=O)CN)[C@@H](C)O)C(C)C)C(C)C)C(C)C)[C@@H](C)O)CSSC[C@@H](C(=O)O)NC(=O)CNC(=O)CNC(=O)[C@H](C)NC1=O [GFMDTAKNVFKNVAVTLLDKLKCKIAGGC]

MIC [8]: 15 µM (≈ 19 µg/mL) | MIC [9]: 20 µM (≈ 25.4 µg/mL) | MIC [10]: 15 µM (≈ 19 µg/mL) | MIC [11]: 15 µM (≈ 19 µg/mL) | MIC [12]: 10 µM (≈ 12.7 µg/mL)
Compound: CC[C@H](C)[C@H](NC(=O)CN)C(=O)N[C@@H](Cc1cnc[nH]1)C(=O)N[C@@H](CC(=O)O)C(=O)N[C@H](C(=O)N[C@@H](CC(C)C)C(=O)N[C@@H](C)C(=O)N[C@@H](Cc1ccc(O)cc1)C(=O)NCC(=O)N[C@@H](CCCCN)C(=O)N1CCC[C@H]1C(=O)N[C@@H](CO)C(N)=O)[C@@H](C)CC [GIHDILAYGKPS]

MIC [8]: ≥ 50 µM | MIC [9]: 30 µM (≈ 39.3 µg/mL) | MIC [10]: ≥ 50 µM | MIC [11]: > 50 µM | MIC [12]: > 50 µM
Compound: CC[C@H](C)[C@H](NC(=O)CN)C(=O)N[C@@H](Cc1cnc[nH]1)C(=O)N[C@@H](CC(=O)O)C(=O)N[C@H](C(=O)N[C@@H](CC(C)C)C(=O)N[C@@H](CCCCN)C(=O)N[C@@H](Cc1ccc(O)cc1)C(=O)NCC(=O)N[C@@H](CCCCN)C(=O)N1CCC[C@H]1C(=O)N[C@@H](C)C(N)=O)[C@@H](C)CC [GIHDILKYGKPA]

MIC [13]: 0.73 µM (≈ 1.41 µg/mL) | MIC [7]: 132 µM (≈ 256 µg/mL) | MIC [14]: ≥ 264 µM | MIC [15]: 5.84 µM (≈ 11.3 µg/mL)
Compound: CC[C@H](C)[C@H](NC(=O)[C@H](CCCCN)NC(=O)[C@@H](NC(=O)[C@H](Cc1ccccc1)NC(=O)[C@H](C)NC(=O)[C@H](CCCCN)NC(=O)CNC(=O)[C@H](Cc1ccccc1)NC(=O)[C@H](CCCCN)NC(=O)[C@H](CCCCN)NC(=O)[C@H](C)NC(=O)[C@H](CCCCN)NC(=O)[C@H](CCCCN)NC(=O)[C@H](CC(C)C)NC(=O)[C@H](Cc1ccccc1)NC(=O)[C@H](CCCCN)NC(=O)CN)C(C)C)C(N)=O [GKFLKKAKKFGKAFVKI]

MIC [16]: ≥ 42.3 µM | MIC [17]: ≥ 169 µM
Compound: CC[C@H](C)[C@H](NC(=O)[C@@H](N)Cc1cnc[nH]1)C(=O)N[C@@H](CCC(N)=O)C(=O)N[C@@H](CCCCN)C(=O)N[C@@H](CCC(=O)O)C(=O)N[C@@H](CC(=O)O)C(=O)N[C@H](C(=O)N1CCC[C@H]1C(=O)N[C@@H](CO)C(=O)N[C@@H](CCC(=O)O)C(=O)N[C@@H](CCCN=C(N)N)C(=O)N[C@@H](Cc1ccc(O)cc1)C(=O)N[C@@H](CC(C)C)C(=O)NCC(=O)N[C@@H](Cc1ccc(O)cc1)C(=O)N[C@@H](CC(C)C)C(=O)N[C@@H](CCC(=O)O)C(=O)N[C@@H](CCC(N)=O)C(=O)N[C@@H](CC(C)C)C(=O)N[C@@H](CC(C)C)C(=O)N[C@@H](CCCN=C(N)N)C(=O)N[C@@H](CC(C)C)C(=O)N[C@@H](CCCCN)C(=O)N[C@@H](CCCCN)C(=O)N[C@@H](Cc1ccc(O)cc1)C(=O)N[C@@H](CCCCN)C(=O)O)C(C)C [HIQKEDVPSERYLGYLEQLLRLKKYK]

MIC (Bacillus cereus AS1.126): 20 µM (≈ 34 µg/mL) | MIC [18]: ≥ 100 µM | MIC [19]: 10 µM (≈ 17 µg/mL) | MIC [20]: 12.5 µM (≈ 21.2 µg/mL) | MIC (Escherichia coli AS1.349): 10 µM (≈ 17 µg/mL) | MIC [21]: ≥ 100 µM | MIC [22]: ≥ 100 µM | MIC [23]: 10 µM (≈ 17 µg/mL) | MIC [24]: 12.5 µM (≈ 21.2 µg/mL) | MIC [25]: 6.25 µM (≈ 10.6 µg/mL)
Compound: CC[C@H](C)[C@H](N)C(=O)N[C@@H](CCCCN)C(=O)N[C@@H](CCCCN)C(=O)N[C@H](C(=O)N[C@@H](CC(C)C)C(=O)N[C@@H](CO)C(=O)N[C@@H](CCCCN)C(=O)N[C@H](C(=O)N[C@@H](CCCCN)C(=O)N[C@@H](CCCCN)C(=O)N[C@@H](Cc1c[nH]c2ccccc12)C(=O)N[C@@H](Cc1c[nH]c2ccccc12)C(=O)N[C@@H](CCCCN)C(=O)O)[C@@H](C)CC)[C@@H](C)CC [IKKILSKIKKWWK]

MIC (Bacillus cereus AS1.126): 25 µM (≈ 42.5 µg/mL) | MIC [18]: ≥ 100 µM | MIC [19]: 2.5 µM (≈ 4.25 µg/mL) | MIC [20]: 10 µM (≈ 17 µg/mL) | MIC (Escherichia coli AS1.349): 3.13 µM (≈ 5.32 µg/mL) | MIC [21]: ≥ 100 µM | MIC [22]: ≥ 100 µM | MIC [23]: 5 µM (≈ 8.5 µg/mL) | MIC [24]: 2.5 µM (≈ 4.25 µg/mL) | MIC [25]: 5 µM (≈ 8.5 µg/mL)
Compound: CC[C@H](C)[C@H](N)C(=O)N[C@@H](CCCCN)C(=O)N[C@@H](CCCCN)C(=O)N[C@H](C(=O)N[C@@H](Cc1c[nH]c2ccccc12)C(=O)N[C@@H](CO)C(=O)N[C@@H](CCCCN)C(=O)N[C@H](C(=O)N[C@@H](CCCCN)C(=O)N[C@@H](CCCCN)C(=O)N[C@@H](CC(C)C)C(=O)N[C@@H](Cc1c[nH]c2ccccc12)C(=O)N[C@@H](CCCCN)C(=O)O)[C@@H](C)CC)[C@@H](C)CC [IKKIWSKIKKLWK]

MIC [13]: 16.1 µM (≈ 22.6 µg/mL) | MIC [7]: 257 µM (≈ 362 µg/mL) | MIC [14]: ≥ 257 µM | MIC [15]: ≥ 64.3 µM
Compound: CC[C@H](C)[C@H](NC(=O)[C@H](CCCCN)NC(=O)[C@@H](NC(=O)[C@H](Cc1ccccc1)NC(=O)[C@H](C)NC(=O)[C@H](CCCCN)NC(=O)CNC(=O)[C@H](Cc1ccccc1)NC(=O)[C@@H](N)CCCCN)C(C)C)C(=O)N[C@@H](CC(C)C)C(=O)N[C@@H](CCCCN)C(=O)N[C@@H](CCCCN)C(N)=O [KFGKAFVKILKK]

MIC [16]: ≥ 500 µM | MIC [17]: ≥ 1000 µM
Compound: CC[C@H](C)[C@H](NC(=O)[C@H](CO)NC(=O)[C@H](CCC(=O)O)NC(=O)[C@H](CCCCN)NC(=O)[C@@H](NC(=O)[C@@H](N)CCCCN)C(C)C)C(=O)N[C@H](C(=O)N[C@@H](CCCN=C(N)N)C(=O)N[C@@H](CCCCN)C(=O)N[C@@H](CC(C)C)C(=O)O)[C@@H](C)CC [KVKESIIRKL]

MIC (Bacillus subtilis A47): ≥ 50 µM | MIC (Escherichia coli 44102): ≥ 50 µM | MIC [26]: 12.5 µM (≈ 32.4 µg/mL)
Compound: CC(C)C[C@H](NC(=O)CNC(=O)[C@H](Cc1ccccc1)NC(=O)[C@H](CC(C)C)NC(=O)[C@H](CCCN=C(N)N)NC(=O)[C@H](CC(C)C)NC(=O)[C@H](Cc1c[nH]c2ccccc12)NC(=O)CNC(=O)[C@H](CO)NC(=O)[C@H](CCCN=C(N)N)NC(=O)[C@H](CCCN=C(N)N)NC(=O)[C@H](CCC(=O)O)NC(=O)[C@H](CC(C)C)NC(=O)[C@H](C)NC(=O)[C@@H](N)CC(C)C)C(=O)N[C@@H](CCCCN)C(=O)N1CCC[C@H]1C(=O)N[C@@H](CCCN=C(N)N)C(=O)N[C@@H](CCCN=C(N)N)C(=O)N[C@@H](CCCCN)C(=O)N[C@@H](Cc1cnc[nH]1)C(=O)O [LALERRSGWLRLFGLKPRRKH]
